Experimental data taken from US20070161807A1, “Method for manufacturing optically pure coumaryl amino acids and the novel coumaryl aminoacids thus obtained” (INSERM (INSTITUT NATIONAL DE LA SANT'E ET DE LA RECHERCHE …, priority 2004, published 2007).

Assay: Physicochemical properties: absorption and fluorescence (Table 1)
Conditions: for Abs. (nm): absorption wavelength; for Abs. (nm) / Em. (nm): determined in 95% ethanol; for Em. (nm): emission wavelength

Row | Compound | QY quantum yield | ε (cm^−1 M^−1) extinction coefficient | Abs. (nm) | Em. (nm)
1 | N[C@@H](Cc1ccc(O)cc1)C(=O)O [Y, tyrosine, reference compound] | 0.13 | 1400 cm⁻¹ M⁻¹ | 274 nm | 303 nm
2 | N[C@@H](Cc1cc(=O)oc2cc(O)c(Cl)cc12)C(=O)O.O=C(O)C(F)(F)F [Example 10, (1S)-1-carboxy-2-(6-chloro, 7-hydroxy-2-oxo-2H-chromen-4-yl)-ethyl ammonium trifluoroacetate] | 0.54 | 10300 cm⁻¹ M⁻¹ | 331 nm | 465 nm
3 | COc1cc(O)c2c(C[C@H](N)C(=O)O)cc(=O)oc2c1.O=C(O)C(F)(F)F [Example 12, (1S)-1-carboxy-2-(5-hydroxy, 7-methoxy-2-oxo-2H-chromen-4-yl)-ethyl ammonium trifluoroacetate] | 0.50 | 6800 cm⁻¹ M⁻¹ | 329 nm | 421 nm
4 | COc1cc(O)cc2oc(=O)cc(C[C@H](N)C(=O)O)c12.O=C(O)C(F)(F)F [Example 13, (1S)-1-carboxy-2-(7-hydroxy, 5-methoxy-2-oxo-2H-chromen-4-yl)-ethyl ammonium trifluoroacetate] | 0.18 | 12700 cm⁻¹ M⁻¹ | 323 nm | 421 nm
5 | COc1ccc2c(CC[C@H](N)C(=O)OCc3ccccc3)cc(=O)oc2c1.O=C(O)C(F)(F)F [Example 17, (1S)-1-benzyloxycarbonyl-3-(7-methoxy-2-oxo-2H-chromen-4-yl)-propyl ammonium trifluoroacetate] | 0.17 | 14600 cm⁻¹ M⁻¹ | 322 nm | 381 nm
6 | COc1ccc2c(C[C@@H](N)C(=O)O)cc(=O)oc2c1.O=C(O)C(F)(F)F [Example 8, (1R)-1-carboxy-2-(7-methoxy-2-oxo-2H-chromen-4-yl)-ethyl ammonium trifluoroacetate] | 0.15 | 14000 cm⁻¹ M⁻¹ | 323 nm | 386 nm
7 | COc1ccc2c(CC[C@H](N)C(=O)O)cc(=O)oc2c1.O=C(O)C(F)(F)F [Example 16, (1S)-1-carboxy-3-(7-methoxy-2-oxo-2H-chromen-4-yl)-propyl ammonium trifluoroacetate] | 0.21 | 12500 cm⁻¹ M⁻¹ | 321 nm | 380 nm
8 | N[C@@H](Cc1cc(=O)oc2cc(O)ccc12)C(=O)O.O=C(O)C(F)(F)F [Example 6, (1S)-1-carboxy-2-(7-hydroxy-2-oxo-2H-chromen-4-yl)-ethyl ammonium trifluoroacetate] | 0.49 | 9000 cm⁻¹ M⁻¹ | 329 nm | 464 nm
9 | COc1ccc2c(C[C@H](N)C(=O)O)cc(=O)oc2c1.CS(=O)(=O)O [Example 7, (1S)-1-carboxy-2-(7-methoxy-2-oxo-2H-chromen-4-yl)-ethyl ammonium methanesulfonate] | 0.18 | 12000 cm⁻¹ M⁻¹ | 324 nm | 383 nm
10 | N[C@@H](Cc1cc(=O)oc2cc(O)cc(O)c12)C(=O)O.O=C(O)C(F)(F)F [Example 15, (1S)-1-carboxy-2-(5,7-dihydroxy-2-oxo-2H-chromen-4-yl)-ethyl ammonium trifluoroacetate] |  | 11800 cm⁻¹ M⁻¹ | 327 nm | 463 nm
11 | COc1cc2oc(=O)cc(C[C@H](N)C(=O)O)c2cc1OC.O=C(O)C(F)(F)F [Example 9, (1S)-1-carboxy-2-(6,7-dimethoxy-2-oxo-2H-chromen-4-yl)-ethyl ammonium trifluoroacetate] | 0.60 | 12000 cm⁻¹ M⁻¹ | 345 nm | 445 nm
12 | COc1cc(OC)c2c(C[C@H](N)C(=O)O)cc(=O)oc2c1.O=C(O)C(F)(F)F [Example 14, (1S)-1-carboxy-2-(5,7-dimethoxy-2-oxo-2H-chromen-4-yl)-ethyl ammonium trifluoroacetate] | 0.39 | 11500 cm⁻¹ M⁻¹ | 324 nm | 419 nm
13 | N[C@@H](Cc1c[nH]c2ccccc12)C(=O)O [W, tryptophan, reference compound] | 0.12 | 5300 cm⁻¹ M⁻¹ | 278 nm | 352 nm
14 | CCOc1ccc2c(C[C@H](N)C(=O)O)cc(=O)oc2c1.O=C(O)C(F)(F)F [Example 11, (1S)-1-carboxy-2-(7-ethoxy-2-oxo-2H-chromen-4-yl)-ethyl ammonium trifluoroacetate] | 0.17 | 13300 cm⁻¹ M⁻¹ | 325 nm | 387 nm
